Source: PubChem BioAssay (NCI)
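Cells were grown in 96-well plates and exposed to each compound for 48 hours at five concentrations; endpoints were interpolated linearly between bracketing concentrations, or set to the highest concentration if not reached. The concentration for 50% growth inhibition is given as GI50. TGI: total growth inhibition.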

How the values were obtained:
Assay in all cases: NCI tumour cell line growth inhibition, 48 h
[1] = tested on: 786-0 renal
[2] = tested on: A498 renal
[3] = tested on: A549 NSCLC
[4] = tested on: ACHN renal
[5] = tested on: BT-549 breast
[6] = tested on: CAKI-1 renal
[7] = tested on: CCRF-CEM leukemia
[8] = tested on: COLO 205 colon
[9] = tested on: DU-145 prostate
[10] = tested on: EKVX NSCLC
[11] = tested on: HCC-2998 colon
[12] = tested on: HCT-116 colon
[13] = tested on: HCT-15 colon
[14] = tested on: HL-60(TB) leukemia
[15] = tested on: HOP-62 NSCLC
[16] = tested on: HOP-92 NSCLC
[17] = tested on: HS 578T breast
[18] = tested on: HT29 colon
[19] = tested on: IGROV1 ovarian
[20] = tested on: K-562 leukemia
[21] = tested on: KM12 colon
[22] = tested on: LOX IMVI melanoma
[23] = tested on: M14 melanoma
[24] = tested on: MALME-3M melanoma
[25] = tested on: MCF7 breast
[26] = tested on: MDA-MB-231 breast
[27] = tested on: MDA-MB-435
[28] = tested on: MOLT-4 leukemia
[29] = tested on: NCI-H226 lung
[30] = tested on: NCI-H23 lung
[31] = tested on: NCI-H460 lung
[32] = tested on: NCI-H522 lung
[33] = tested on: NCI/ADR-RES ovarian
[34] = tested on: OVCAR-3 ovarian
[35] = tested on: OVCAR-4 ovarian
[36] = tested on: OVCAR-5 ovarian
[37] = tested on: OVCAR-8 ovarian
[38] = tested on: PC-3 prostate
[39] = tested on: RPMI-8226 leukemia
[40] = tested on: SF-268 CNS
[41] = tested on: SF-295 CNS
[42] = tested on: SF-539 CNS
[43] = tested on: SK-MEL-2 melanoma
[44] = tested on: SK-MEL-28 melanoma
[45] = tested on: SK-MEL-5 melanoma
[46] = tested on: SK-OV-3 ovarian
[47] = tested on: SN12C renal
[48] = tested on: SNB-19 CNS
[49] = tested on: SNB-75 CNS
[50] = tested on: SR leukemia
[51] = tested on: SW-620 colon
[52] = tested on: T-47D breast
[53] = tested on: TK-10 renal
[54] = tested on: U251 CNS
[55] = tested on: UACC-257 melanoma
[56] = tested on: UACC-62 melanoma
[57] = tested on: UO-31 renal

COc1ccc(CC(C)=C(c2ccc(OCCN3CCCC3)cc2)c2ccc(OCCN3CCCC3)cc2)cc1
GI50 [1]: 2.78 µM | TGI [1]: 6.05 µM | GI50 [2]: 3.01 µM | TGI [2]: 6.28 µM | GI50 [3]: 3.1 µM | TGI [3]: 7.39 µM | GI50 [4]: 3.36 µM | TGI [4]: 6.48 µM | GI50 [5]: 3.04 µM | TGI [5]: 6.35 µM | GI50 [6]: 4 µM | TGI [6]: 7.31 µM | GI50 [7]: 3.97 µM | TGI [7]: 11.9 µM | GI50 [8]: 0.904 µM | TGI [8]: 4.55 µM | GI50 [9]: 3.32 µM | TGI [9]: 6.43 µM | GI50 [10]: 3.68 µM | TGI [10]: 7.02 µM | GI50 [11]: 2.46 µM | TGI [11]: 5.38 µM | GI50 [12]: 1.76 µM | TGI [12]: 5.25 µM | GI50 [13]: 1.28 µM | TGI [13]: 4.36 µM | GI50 [14]: 4.14 µM | TGI [14]: 8.53 µM | GI50 [15]: 3.74 µM | TGI [15]: 7.93 µM | GI50 [16]: 0.773 µM | TGI [16]: 3.92 µM | GI50 [17]: 2.99 µM | TGI [17]: 7.17 µM | GI50 [18]: 0.84 µM | TGI [18]: 3.31 µM | GI50 [19]: 3.78 µM | TGI [19]: 7.16 µM | GI50 [20]: 0.497 µM | TGI [20]: 1.28 µM | GI50 [21]: 3.49 µM | TGI [21]: 6.77 µM | GI50 [22]: 1.07 µM | TGI [22]: 3.94 µM | GI50 [23]: 0.722 µM | TGI [23]: 2.5 µM | GI50 [24]: 3.57 µM | TGI [24]: 6.81 µM | GI50 [25]: 0.841 µM | TGI [25]: 3.2 µM | GI50 [26]: 3.25 µM | TGI [26]: 6.44 µM | GI50 [27]: 0.721 µM | TGI [27]: 2.57 µM | GI50 [28]: 2.07 µM | TGI [28]: 5.96 µM | GI50 [29]: 3.2 µM | TGI [29]: 6.63 µM | GI50 [30]: 3.49 µM | TGI [30]: 6.76 µM | GI50 [31]: 3.15 µM | TGI [31]: 6.45 µM | GI50 [32]: 3.63 µM | TGI [32]: 7.6 µM | GI50 [33]: 3.7 µM | TGI [33]: 7.08 µM | GI50 [34]: 2.68 µM | TGI [34]: 5.59 µM | GI50 [35]: 3.39 µM | TGI [35]: 6.9 µM | GI50 [36]: 3.49 µM | TGI [36]: 6.68 µM | GI50 [37]: 3.64 µM | TGI [37]: 7.29 µM | GI50 [38]: 2.99 µM | TGI [38]: 7.25 µM | GI50 [39]: 2.12 µM | TGI [39]: 9.37 µM | GI50 [40]: 3.24 µM | TGI [40]: 6.7 µM | GI50 [41]: 4 µM | TGI [41]: 7.38 µM | GI50 [42]: 3.59 µM | TGI [42]: 6.84 µM | GI50 [43]: 3.68 µM | TGI [43]: 6.97 µM | GI50 [44]: 3.6 µM | TGI [44]: 6.83 µM | GI50 [45]: 3.81 µM | TGI [45]: 7.05 µM | GI50 [46]: 4.19 µM | TGI [46]: 7.93 µM | GI50 [47]: 3.49 µM | TGI [47]: 6.74 µM | GI50 [48]: 3.93 µM | TGI [48]: 7.32 µM | GI50 [49]: 2.69 µM | TGI [49]: 5.74 µM | GI50 [50]: 0.483 µM | TGI [50]: 1.3 µM | GI50 [51]: 2.23 µM | TGI [51]: 5.25 µM | GI50 [52]: 3.13 µM | TGI [52]: 7.61 µM | GI50 [53]: 3.66 µM | TGI [53]: 7.28 µM | GI50 [54]: 1.81 µM | TGI [54]: 5.47 µM | GI50 [55]: 3.95 µM | TGI [55]: 7.59 µM | GI50 [56]: 4.02 µM | TGI [56]: 7.4 µM | GI50 [57]: 2.79 µM | TGI [57]: 5.75 µM
